# Data taken from US20140155445A1, “Compounds and Methods for Treating Cancer and Diseases of the Central Nervous System” (Osta Biotechnologies Inc., priority 2007, published 2014).
# Entries after “also recorded” stand apart in the source; their conditions may differ.
# Tests used:
# [1] = test system: OVCAR-3 (human ovarian carcinoma); experiment: Ovarian carcinoma model OVCAR-3 in SCID mice; format: in vivo; conditions: QC-56 60 mg/kg/ip; CDDP 3 mg/kg
# Text: • Species and strain: […] OVCAR-3 (human ovarian carcinoma). […] Control groups received the vehicle alone.
# [2] = test system: B16-BL6 cells (mouse melanoma); experiment: B16-BL6 melanoma lung metastasis model; format: in vivo; conditions: QC-56 60 mg/kg i.p.; vehicle group 101 nodules
# Method: • Species and strain: […] B16-BL6 cells (mouse melanoma). B16-BL6 metastatic variant was derived from B16-F10. This cell variant was obtained from Dr. Linda D. Williams, Dept. of Cancer Biology, MD Anderson Cancer Center, Texas, USA. […] Cells were maintained at 37° C. in a humidified atmosphere (5% CO2, 95% air). […] Control groups received the vehicle alone.
# [3] = test system: SKMEL-V+ cells; experiment: Melanoma efficacy study of QC-199, SKMEL-V+ cells s.c. in Scid mice; format: in vivo, human; conditions: 10 mg/kg i.v. injection, 2 cycles, d1, 3, 5 per cycle
# Method: BD PharMingen, San Diego, Calif.). Cryostat sections were used for CD31 staining. […] Sections were rehydrated in PBS and then blocked with 5% normal goat serum for 1 h. The sections were then incubated overnight at 4° C. with CD31 antibody diluted 1:25 in 3% BSA-PBS. […] Sections were counterstained with Harris' hematoxylin and mounted. Slides were analyzed by conventional light microscopy and photographed using color slides (Eastman Kodak, Rochester, N.Y.). Balb/c Scid mice, 6 week-old, were obtained from Charles River Laboratories, St. Zotique, PQ, Canada. The mice weighed 18-22 g. The experiments were approved by the Animal Care Committee, McGill University, Montreal. The animals were housed in individual cages (4 per cage) and were fed standard rodent chow and water ad libitum. […] When the tumors become palpable (size of a rice), mice weights were measured with a digital balance accurate to 0.05 g. […] For the infusion, mice were anesthetized using isoflurane-based system ([…] COMPACT NRB, 3975-0800-000). For the infusion, a mini pump (NE-1800, New Era Pump Systems, Inc.) was used to infuse the compound via the tail vein during a 2 h period. […] At experiment termination, mice were anesthetized with isoflurane and sacrificed by cervical dislocation. Tumors were dissected and tumor weights were measured using a digital balance.
# [4] = test system: SKMEL 28-V+ cells (human melanoma); experiment: Melanoma model SKMEL-V+ in SCID mice (combination study); format: in vivo; conditions: QC-56 60 mg/kg/ip; Dacarbazine 55 mg/kg
# Method: SKMEL 28-V+ cells (human melanoma). These cells were originally from the ATCC and then engineered to overexpress VEGF. […] The cells were tested to be free of mycoplasma.
# (§1) Control groups received the vehicle alone.
# [5] = test system: HCT-116 colorectal carcinoma; experiment: Colorectal carcinoma model HCT-116 in SCID mice; format: in vivo, human
# Text: as §1
# [6] = test system: hHO-1 transfected primary rat astroglial cultures; experiment: Protein carbonyl ELISA in hHO-1-transfected primary rat astroglia (whole-cell and mitochondrial compartments); format: cell-based
# Method: Cells were grown in Ham's F12 and high glucose DMEM (50:50 v/v) supplemented with 10 mM HEPES, 5% heat-inactivated horse serum, 5% heat-inactivated fetal bovine serum, and penicillin-streptomycin (50 U/mL and 50 μg/mL, respectively).
# (§2) Upon reaching >90% confluence, 1×10^6 cells were transiently transfected with 4.0 μg of plasmid DNA-Lipofectamine 2000 complex using Lipofectamine 2000 method according to manufacturer instructions (Invitrogen). […] 12 μg of plasmid DNA and 16 μl of Lipofectamine 2000 reagent were diluted in 1.5 mL opti-MEM I reduced serum medium and incubated for 5 minutes at room temperature with gentle mixing. The two solutions were combined, incubated at room temperature for 20 minutes to promote formation of DNA-lipid complexes and administered to the cells. 2 mL opti-MEM I reduced serum medium was added to the flasks to ensure coverage of the monolayer by the transfection mixture. Following incubation for 6 hours at 37° C., the transfection mixture was replaced with 10 mL of complete media without antibiotics.
# The cells were sonicated (Sonics & Materials, Danbury, Conn.) at a power level of 50 for 3×20 s in a cooled water bath. […] Whole-cell and mitochondrial preparations were assayed for protein carbonyls as described below.
# Protein carbonyls were reacted with 2,4-dinitrophenylhydrazine (DNP) and the hydrazone adducts were detected with anti-DNP antisera. Quantification was achieved by comparison with oxidized BSA standards. Oxidized (carbonylated) BSA was prepared by reacting natural BSA (at 50 mg/mL in PBS) with hypochlorous acid (5 mM) for 1 h at 37° C., followed by overnight dialysis against PBS at 4° C. […] The pellet was resuspended in 2 mL of same buffer, sonicated on ice 2×15 s at 20 W and centrifuged for 20 min at 4° C. at 1,303×g. Protein concentration of supernatant was measured with the RC DC protein assay based on the Lowry protocol (Bio-Rad Laboratories, Hercules, Calif.). All samples were adjusted to 4.0 mg protein/mL. […] Five microliters aliquots of each reaction mixture were mixed with 1 mL PBS and 200 μL replicates were added per well to 96-well immunoplates and incubated overnight at 4° C. After washing with PBS, nonspecific binding sites were blocked with 0.1% Tween 20 in PBS. […] A 6-point standard curve of reduced and oxidized BSA was generated for each plate analyzed. Specific absorbance for each sample was calculated by subtracting basal absorbance of the DNP reagent from the total absorbance.
# [7] = molecular target: T1, human HO-1 (hHO-1) in transfected astroglia (Homo sapiens, UniProt P09601); experiment: HO enzyme activity (bilirubin formation) in hHO-1-transfected astrocytes; format: cell-based
# T1 construct: containing the entire protein-coding region (866 bp) of the human HO-1 gene; expressed in transfected cells; host or cells: primary rat astrocytes, transient transfection with pcDNA3.1/Zeo.CMV.Flag.hHO-1 (Lipofectamine 2000)
# T1 sequence (P09601 1-288): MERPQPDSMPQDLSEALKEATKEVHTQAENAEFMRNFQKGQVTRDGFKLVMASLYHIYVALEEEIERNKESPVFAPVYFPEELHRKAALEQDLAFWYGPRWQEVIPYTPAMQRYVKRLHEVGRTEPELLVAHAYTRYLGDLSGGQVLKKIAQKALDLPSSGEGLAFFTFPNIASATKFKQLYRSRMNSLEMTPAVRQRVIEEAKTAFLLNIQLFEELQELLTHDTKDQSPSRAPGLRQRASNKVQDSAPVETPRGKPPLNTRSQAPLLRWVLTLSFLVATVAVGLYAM
# Method: as §2
# A young adult male rat was gas-anesthetized, laid on ice and systemically perfused with ice-cold 0.9% NaCl to get rid of all blood from liver. The liver was then excised on ice and transferred to a cold room (4° C.) and cut into small pieces in cold 0.9% NaCl (3 mL per gram of tissue) with surgical scissors in and placed in a 50 mL tube. The tissue chunks were homogenized with an electric tissue homogenizer and centrifuged at 150×g for […] at 4° C. Similarly, all of the following steps, including centrifugations, were performed at 4° C. The supernatant was centrifuged at 18,000×g for 10 min and further at 30,000×g for 30 min. A saturated solution of ammonium sulfate was added to the 30,000×g supernatant to attain 40% saturation and placed on ice for 10 min. The mixture was centrifuged at 10,000×g for 10 min and supernatant was recovered and transferred to a fresh tube. Sixty percent of saturation was achieved by adding saturation solution of ammonium sulfate to the supernatant. The mixed solution was centrifuged again at 10,000×g for 10 min and […]. […] The dialysate was centrifuged at 10,000 g for 10 min and pellet was discarded. The protein concentration of the supernatant was measured with Bradford reagent (BioRad laboratories, Hercules, Calif.) and adjusted to 10 mg/mL with 0.01 M KPO4, pH7.4. The supernatant was aliquoted and stored at −20° C. ready for use.
# Cytosol extracts were prepared for HO activity measurement by the method of Ryter (Ryter, Kvam, Tyrrell 2000). Astroglial monolayers were washed with ice-cold PBS and scraped in ice-cold PBS-EDTA (1 mM, pH 8.0) containing 50 μg/mL protease inhibitor (AEBSF), centrifuged at 150×g at 4° C. and resuspended in 20 mM Tris-HCl (pH 7.4) and 0.25 M sucrose containing protease inhibitors. Cell suspensions were sonicated on ice 2×15 s at 20 W and centrifuged for 20 min at 4° C. at 15,000×g. Protein concentration of supernatant was measured with Bradford method. […] Reaction mixtures were incubated at 37° C. in the dark for 60 min with hard vortex every 10 min. […] HO activity was calculated as nanomoles bilirubin per milligram protein per min, assuming an extinction coefficient of 40/mM/cm in chloroform (see FIG. 8).
# Cells were rinsed twice with cold PBS (pH 7.4) and scraped in iced lysis buffer consisting of 1% Nonidet P-40, 50 mM Tris.HCl (pH 7.4), 30 mM NaCl, 25 mM β-glycerophosphate, 10 mM EDTA, 10 mM EGTA, 1 mM MgCl2, and protease inhibitors (10 mM sodium fluoride, 50 μg/mL AEBBSF, 5 μg/mL leupeptin, 5 μg/mL pepstatin, 5 μg/mL aprotinin). […] Protein contents were determined using the Bradford method. […]
structure (smiles),measurement,setting,value
"N.N.[Cl][Pt][Cl] [cisplatin, reference compound]",tumor size on the day of sacrifice,[1],0.63±0.06 cm^3
same,macroscopic nodules in the lungs (average),[2],60
"CN(C)/N=N/c1[nH]cnc1C(N)=O [Dacarbazine, reference compound]",reduction of tumor volume vs vehicle,[3],21%
same,inhibition of tumor growth compared to vehicle alone,[4],approximately 24%
same,tumor size on the day of sacrifice,[4],1.30±0.23 cm^3
"O=c1[nH]cc(F)c(=O)[nH]1 [5-FU, reference compound]",mouse mortality,"[5]; 60 mg/kg, HCT-116 model (FIG. 25)",induced mortality
same,reduction of tumor volume at the time of sacrifice compared to control,"[5]; QC-56 60 mg/kg/ip, 5-FU 60 mg/kg/ip reduced to 40 mg/kg",similar
"Cl.FC[C@@H]1CO[C@@](CCc2ccc(Cl)cc2)(Cn2ccnc2)O1 [QC-47, (2R,4S)-2-[2-(4-Chlorophenyl)ethyl]-2-[(1H-imidazol-1-yl)methyl]-4-(fluoromethyl)-1,3-dioxolane hydrochloride]",oxidative protein damage (protein carbonyls) accruing from hHO-1 transfection,[6]; 6.5 μM,significantly attenuated
same,dose dependence of attenuation of oxidative protein damage,"[6]; transiently transfected rat astroglia, hydrochloride",significant dose dependant attenuations; also recorded: in a dose dependent manner significantly decreased
same,HO activity in HO-1-transfected astroglia,"[7]; 6.5 μM, 18 h, hHO-1-transfected cells, hydrochloride",suppressed to levels akin to those of non-transfected and sham-transfected controls; also recorded: significantly attenuated; also recorded: significantly decreased
same,expression level of flag-tagged HO-1 protein,"[7]; 6.5 μM, transiently transfected cells",without affecting the expression level of flag-tagged HO-1 protein
same,IC50,"[7]; concentration of QC-47 used on HO-1-transfected astroglia, stated as IC50",6.5 µM
